# Measured values taken from the SangsterLogP compilation.
# Test: method code SF-AS, from DOI: 10.1002/chin.197535153
row,Structure (SMILES),logP
1,COc1ccc(OC(=O)c2ccc(N)cc2O)cc1,3.07
2,Cc1cccc(OC(=O)c2ccc(N)cc2O)c1,3.64
3,CC(C)c1ccc(OC(=O)c2ccc(N)cc2O)cc1,4.12
4,Nc1ccc(C(=O)Oc2ccc(Cl)cc2)c(O)c1,3.6
5,COc1cccc(OC(=O)c2ccc(N)cc2O)c1,3.25
6,Nc1ccc(C(=O)Oc2ccccc2F)c(O)c1,3.29
7,COc1ccccc1OC(=O)c1ccc(N)cc1O,2.88
8,Nc1ccc(OC(=O)c2ccc(N)cc2O)cc1,2.04
9,Nc1cccc(OC(=O)c2ccc(N)cc2O)c1,2.08
10,Nc1ccc(C(=O)Oc2cccc(Br)c2)c(O)c1,3.84
11,Nc1ccc(C(=O)Oc2ccccc2Br)c(O)c1,3.74
12,CC(C)c1ccccc1OC(=O)c1ccc(N)cc1O,4.28
13,Nc1ccc(C(=O)Oc2ccc(F)cc2)c(O)c1,3.27
14,Cc1cccc(C)c1OC(=O)c1ccc(N)cc1O,3.88
15,Nc1ccc(C(=O)Oc2ccccc2)c(O)c1,3.15
16,Nc1ccc(C(=O)Oc2ccc(Br)cc2)c(O)c1,3.46
17,Nc1ccc(C(=O)Oc2cccc(C(F)(F)F)c2)c(O)c1,3.61
18,Cc1ccccc1OC(=O)c1ccc(N)cc1O,3.14
19,Nc1ccc(C(=O)Oc2cccc(Cl)c2)c(O)c1,3.9
20,Nc1ccc(C(=O)O)c(O)c1,0.87
21,Cc1ccc(OC(=O)c2ccc(N)cc2O)cc1,3.38
22,Nc1ccc(C(=O)Oc2ccccc2Cl)c(O)c1,3.72
23,Nc1ccc(C(=O)Oc2cccc(F)c2)c(O)c1,3.42
24,CC(C)(C)c1ccccc1OC(=O)c1ccc(N)cc1O,4.21
25,Nc1ccc(C(=O)Oc2ccc(Cl)cc2Cl)c(O)c1,4.27
